Key:
Format in all cases: binding
CBC (CBP80ΔNLS–CBP20) = biological target: T1, CBC (CBP80ΔNLS–CBP20) (Homo sapiens, UniProt P52298); assay: isothermal titration calorimetry
T1 construct: gene NCBP2; heterodimer; CBP80ΔNLS (lacks N-terminal 19 residues) from High Five insect cells; CBP20 as His-GST fusion from E. coli, tag cleaved by TEV
T1 sequence (P52298 2-156): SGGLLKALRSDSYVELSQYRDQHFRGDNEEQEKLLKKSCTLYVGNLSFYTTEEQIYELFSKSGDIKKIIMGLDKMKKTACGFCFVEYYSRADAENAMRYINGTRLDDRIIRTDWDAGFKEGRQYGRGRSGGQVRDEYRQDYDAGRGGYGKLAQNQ
T1 sequence (Q09161 20-790 partner): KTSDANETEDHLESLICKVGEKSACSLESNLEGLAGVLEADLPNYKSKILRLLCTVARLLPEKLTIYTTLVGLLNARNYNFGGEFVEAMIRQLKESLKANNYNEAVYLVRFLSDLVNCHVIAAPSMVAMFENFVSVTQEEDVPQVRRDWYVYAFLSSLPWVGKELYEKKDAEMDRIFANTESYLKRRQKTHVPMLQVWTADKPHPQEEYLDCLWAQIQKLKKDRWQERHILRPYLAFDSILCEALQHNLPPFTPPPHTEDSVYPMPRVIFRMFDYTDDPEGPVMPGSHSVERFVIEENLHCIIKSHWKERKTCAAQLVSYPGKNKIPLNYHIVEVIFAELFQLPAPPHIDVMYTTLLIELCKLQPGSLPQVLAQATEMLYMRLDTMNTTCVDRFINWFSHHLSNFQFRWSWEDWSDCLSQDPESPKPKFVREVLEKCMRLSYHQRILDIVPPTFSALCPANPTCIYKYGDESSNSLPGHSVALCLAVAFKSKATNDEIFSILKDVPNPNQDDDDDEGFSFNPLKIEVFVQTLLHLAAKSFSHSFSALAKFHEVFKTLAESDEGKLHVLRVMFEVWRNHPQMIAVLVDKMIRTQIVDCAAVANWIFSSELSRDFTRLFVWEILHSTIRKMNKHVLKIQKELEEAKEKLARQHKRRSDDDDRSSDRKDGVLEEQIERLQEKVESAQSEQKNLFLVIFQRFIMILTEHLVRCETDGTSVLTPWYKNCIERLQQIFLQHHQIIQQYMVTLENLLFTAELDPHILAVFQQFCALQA

[1] = biological target: T2, CBC in complex with PHAX^103–196 (Homo sapiens, UniProt P52298); assay: isothermal titration calorimetry
T2 construct: gene NCBP2; CBC (CBP80ΔNLS lacking N-terminal 19 residues; CBP20, tag cleaved) plus PHAX residues 103-196 made as His-MBP fusion in E. coli, not phosphorylated; Phosphorylated adapter RNA export protein

[2] = biological target: T3, Ran (RanGTP) in the snRNA export complex with CRM1, PHAX, CBC (Homo sapiens, UniProt P62826, Q69L); assay: cryo-EM structure of the complex; details: Mg2+ present; Ran nucleotide site; complex with CRM1, phosphorylated PHAX, CBC and capped RNA
T3 construct: Ran Q69L as His-tag fusion from E. coli, loaded with GTP; His-CRM1; CK2-phosphorylated full-length PHAX; CBP80ΔNLS–CBP20; capped 14-nt RNA; with Exportin-1; Phosphorylated adapter RNA export protein

T2 sequence (Q9H814 103-196 partner, one chain of several): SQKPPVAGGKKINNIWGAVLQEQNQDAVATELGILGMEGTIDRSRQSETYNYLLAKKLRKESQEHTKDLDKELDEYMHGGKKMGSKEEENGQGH

Structure (SMILES) | Kd (CBC (CBP80ΔNLS–CBP20)) [nM] | Kd [1] [nM] | cryo-EM structure of the complex [2]
C[n+]1cn([C@@H]2O[C@H](COP(=O)(O)OP(=O)(O)OP(=O)(O)OC[C@H]3O[C@@H](n4cnc5c(=O)[nH]c(N)nc54)[C@H](O)[C@@H]3O)[C@@H](O)[C@H]2O)c2nc(N)[nH]c(=O)c21 [m^7GpppG] | 96 | 100 | –
Nc1nc2c(ncn2[C@@H]2O[C@H](COP(=O)(O)OP(=O)(O)OP(=O)(O)O)[C@@H](O)[C@H]2O)c(=O)[nH]1 [GTP] | – | – | the catalytic mutant of Ran (Q69L) bound to GTP
C[n+]1cn([C@@H]2O[C@H](COP(=O)(O)OP(=O)(O)OP(=O)(O)O)[C@@H](O)[C@H]2O)c2nc(N)[nH]c(=O)c21 [m^7GTP] | 300 | – | –
